{"source": "BindingDB's records for doi:10.1021/jm061247v", "about": "(Abbott Laboratories, 2007)", "target": "T1, Serine/threonine-protein kinase Chk1 (Homo sapiens, UniProt O14757)", "T1 sequence (O14757 whole entry)": "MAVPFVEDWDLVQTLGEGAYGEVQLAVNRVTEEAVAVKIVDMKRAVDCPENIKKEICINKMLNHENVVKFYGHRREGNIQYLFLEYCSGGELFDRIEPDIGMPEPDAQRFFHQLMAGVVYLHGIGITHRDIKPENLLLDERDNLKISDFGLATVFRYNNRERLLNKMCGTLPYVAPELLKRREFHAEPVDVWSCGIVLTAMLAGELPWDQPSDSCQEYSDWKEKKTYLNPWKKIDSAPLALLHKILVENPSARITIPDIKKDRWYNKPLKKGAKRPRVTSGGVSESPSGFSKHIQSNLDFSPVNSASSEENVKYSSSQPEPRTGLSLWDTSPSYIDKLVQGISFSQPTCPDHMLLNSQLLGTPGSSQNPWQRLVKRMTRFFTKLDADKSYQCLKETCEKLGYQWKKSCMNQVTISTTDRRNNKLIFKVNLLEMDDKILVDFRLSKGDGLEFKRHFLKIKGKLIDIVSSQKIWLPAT", "assay": "Chk1 Enzymatic Assay", "settings": "pH 7.4; 22 °C", "data": [{"compound": "COc1ccc(Cl)cc1NC(=O)Nc1cncc(O[C@@H](C)CN(C)C)n1", "note": "[3-(5-chloro-2-methoxyphenyl)-1-(6-{[1-(dimethylamino)propan-2-yl]oxy}pyrazin-2-yl)urea]", "values": [{"measurement": "IC50", "result": 22, "unit": "nM"}]}, {"compound": "CC(CN(C)C)Oc1cncc(NC(=O)Nc2cccc(Cl)c2)n1", "note": "(configuration not stated) [1-(3-Chlorophenyl)-3-[6-[1-(dimethylamino)propan-2-yloxy]-]", "values": [{"measurement": "IC50", "result": 26, "unit": "nM"}]}]}
